Results reported in patent publication EP2064211B1, “IMIDAZO[1,2-A]PYRIDINE HYDROXYMATE COMPOUNDS THAT ARE INHIBITORS OF HISTONE DEACETYLASE” (MEI Pharma, Inc., priority 2006, dated 2008).
Read-outs that look alike come from different tables or passages of the source.

Legend:
[1] = test system: Colo205 cells; test: Cell-based proliferation assay for determination of GI50 values (CyQUANT); design: species or system Human; settings: concentration for 50% inhibition of cell growth, read-out: Gl50 (Colo205)
Procedure: Human cancer cell lines (e.g. Colo205) were obtained from ATCC. Colo205 cells were cultivated in RPMI 1640 containing 2 mM L-Glutamine, 5% FBS, 1.0 mM Na Pyruvate. Colo205 cells were seeded in 96-wells plate at 5000 cells per well. The plates were incubated at 37°C, 5% CO2, for 24 h. Cells were treated with compounds at various concentrations for 96 h. Cell growth was then monitored using CyQUANT® cell proliferation assay (Invitrogen Pte Ltd). Dose response curves were plotted to determine Gl50 values for the compounds using XL-fit (ID Business Solution, Emeryville, CA). Gl50 is defined as the concentration of compound required for 50% inhibition of cell growth.

[2] = target: T1, HDAC1 enzyme (Homo sapiens, UniProt Q13547); test: In vitro HDAC assay for determination of IC50 values (BIOMOL fluorescent-based HDAC activity assay); assay type: biochemical; settings: recombinant GST-HDAC1, 500 uM Flur de lys substrate, room temperature 2 h; read-out: IC50 (HDAC 1)
T1 construct: Amplification of human HDAC1 coding region from this cDNA library was cloned separately into the baculovirus expression pDEST20 vector; made in house; host or cells: SF9 insect cells (baculovirus, pDEST20 vector)
Procedure: Human cDNA library was prepared using cultured SW620 cells. Amplification of human HDAC1 coding region from this cDNA library was cloned separately into the baculovirus expression pDEST20 vector (GATEWAY Cloning Technology, Invitrogen Pte Ltd). The pDEST20-HDAC1 construct was confirmed by DNA sequencing. Recombinant baculovirus was prepared using the Bac-To-Bac method following the manufacturer's instruction (Invitrogen Pte Ltd).
Expression of GST-HDAC1 was done by infecting SF9 cells (Invitrogen Pte Ltd) with pDEST20-HDAC1 baculovirus at MOI=1 for 48 h. Soluble cell lysate was incubated with pre-equilibrated Glutathione Sepharose 4B beads (Amersham) at 4°C for 2 h. The beads were washed with PBS buffer for 3 times. The GST-HDAC1 protein was eluted by elution buffer containing 50 mM Tris, pH8.0, 150mM NaCl, 1% Triton X-100 and 10mM or 20mM reduced Glutathione. The purified GST-HDAC1 protein was dialyzed with HDAC storage buffer containing 10mM Tris, pH7.5, 100mM NaCl and 3mM MgCl2. 20% Glycerol was added to purified GST-HDAC1 protein before storage at -80°C.
The assay has been carried out in 96 well format and the BIOMOL fluorescent-based HDAC activity assay has been applied. The reaction composed of assay buffer, containing 25 mM Tris pH 7.5, 137 mM NaCl, 2.7 mM KCl, 1 mM MgCl2, 1 mg/ml BSA, tested compounds, an appropriate concentration of HDAC1 enzyme, 500 uM Flur de lys generic substrate for HDAC1 enzyme and subsequently was incubated at room temperature for 2 h. Flur de lys Developer was added and the reaction was incubated for 10 min. Briefly, deacetylation of the substrate sensitizes it to the developer, which then generates a fluorophore. The fluorophore is excited with 360 nm light and the emitted light (460 nm) is detected on a fluorometric plate reader (Tecan Ultra Microplate detection system, Tecan Group Ltd.).
The analytical software, Prism 4.0 (GraphPad Software Inc) has been used to generate IC50 from a series of data. IC50 is defined as the concentration of compound required for 50% inhibition of HDAC enzyme activity.

[3] = Homo sapiens, COLO 205, compound treatment 96 h

T1 sequence (Q13547 whole entry): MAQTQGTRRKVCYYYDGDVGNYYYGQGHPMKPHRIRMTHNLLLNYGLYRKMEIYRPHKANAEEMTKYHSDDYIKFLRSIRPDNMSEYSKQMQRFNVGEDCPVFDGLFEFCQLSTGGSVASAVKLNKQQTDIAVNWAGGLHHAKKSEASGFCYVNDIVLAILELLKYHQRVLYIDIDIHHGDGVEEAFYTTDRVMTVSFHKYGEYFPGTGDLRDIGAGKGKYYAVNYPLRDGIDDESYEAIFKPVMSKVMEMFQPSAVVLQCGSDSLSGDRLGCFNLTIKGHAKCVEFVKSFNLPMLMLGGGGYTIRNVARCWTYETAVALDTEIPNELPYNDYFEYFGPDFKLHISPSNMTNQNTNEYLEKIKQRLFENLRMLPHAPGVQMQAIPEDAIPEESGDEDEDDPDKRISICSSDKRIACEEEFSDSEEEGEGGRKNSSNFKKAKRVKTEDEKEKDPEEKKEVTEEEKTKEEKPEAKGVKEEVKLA

| Compound | IC50 ([1]; compound treatment 96 h) | IC50 [2] | IC50 [1, 3] |
| --- | --- | --- | --- |
| 3-(2-Butyl-3-{(ethyl-(2-methyl-pentyl)-amino]-methyl}-imidazo[1,2-a]pyridin-7-yl)-N-hydroxy-acrylamide [Compound 41] | 370 nM | – | – |
| CC(C)(C)CNCc1c(C(C)(C)C)nc2cc(C=CC(=O)NO)ccn12 [Compound 1, 3-{2-tert-Butyl-3-[(2,2-dimethyl-propylamino)-methyl]-imidazo[1,2-a]pyridin-7-yl}-N-hydroxy-acrylamide] | – | 190 nM | 1500 nM |
| CCC(CC)NCc1c(C(C)(C)C)nc2cc(C=CC(=O)NO)ccn12 [Compound 2, 3-{2-tert-Butyl-3-[(1-ethyl-propylamino)-methyl]-imidazo[1,2-a]pyridin-7-yl}-N-hydroxy-acrylamide] | – | 160 nM | 1500 nM |
| CC(C)(C)NCc1c(C(C)(C)C)nc2cc(C=CC(=O)NO)ccn12 [Compound 3, 3-[2-tert-Butyl-3-(tert-butylamino-methyl)-imidazo[1,2-a]pyridin-7-yl]-N-hydroxy-acrylamide] | – | 130 nM | 740 nM |
| CCCCNCc1c(CCCC)nc2cc(C=CC(=O)NO)ccn12 [Compound 4, 3-(2-Butyl-3-butylaminomethyl-imidazo[1,2-a]pyridin-7-yl)-N-hydroxy-acrylamide] | – | 20 nM | 180 nM |
| CCCCc1nc2cc(C=CC(=O)NO)ccn2c1CN(CCC)CCC [Compound 6, 3-(2-Butyl-3-dipropylaminomethyl-imidazo[1,2-a]pyridin-7-yl)-N-hydroxy-acrylamide] | – | 200 nM | 610 nM |
| CCCCc1nc2cc(C=CC(=O)NO)ccn2c1CN(CC)CC [Compound 7, 3-(2-Butyl-3-diethylaminomethyl-imidazo[1,2-a]pyridin-7-yl)-N-hydroxy-acrylamide] | – | 180 nM | 680 nM |
| CCCCc1nc2cc(C=CC(=O)NO)ccn2c1CN(C)CCCC [Compound 8, 3-{2-Butyl-3-[(butyl-methyl-amino)-methyl]-imidazo[1,2-a]pyridin-7-yl}-N-hydroxy-acrylamide] | – | 70 nM | 170 nM |
| CCCCc1nc2cc(C=CC(=O)NO)ccn2c1CN(CC)CCCC [Compound 9, 3-{2-Butyl-3-[(butyl-ethyl-amino)-methyl]-imidazo[1,2-a]pyridin-7-yl}-N-hydroxy-acrylamide] | – | 60 nM | 160 nM |
| CCCCc1nc2cc(C=CC(=O)NO)ccn2c1CN(CCC)CCCC [Compound 10, 3-{2-Butyl-3-[(butyl-propyl-amino)-methyl]-imidazo[1,2-a]pyridin-7-yl}-N-hydroxy-acrylamide] | – | 90 nM | 580 nM |
| CCN(CC)Cc1c(C(C)(C)C)nc2cc(C=CC(=O)NO)ccn12 [Compound 11, 3-(2-tert-Butyl-3-diethylaminomethyl-imidazo[1,2-a]pyridin-7-yl)-N-hydroxy-acrylamide] | – | 1200 nM | 4400 nM |
| CCCCN(CCCC)Cc1c(C)nc2cc(/C=C/C(=O)NO)ccn12 [Compound 12, 3-(3-Dibutylaminomethyl-2-methyl-imidazo[1,2-a]pyridin-7-yl)-N-hyroxy-acrylamide] | – | 80 nM | 800 nM |
| CCCN(CC)Cc1c(C(C)(C)C)nc2cc(C=CC(=O)NO)ccn12 [Compound 13, 3-{2-tert-Butyl-3-[(ethyl-propyl-amino)-methyl]-imidazo[1,2-a]pyridin-7-yl}-N-hydroxy-acrylamide] | – | 270 nM | 1800 nM |
| CCCCc1nc2cc(C=CC(=O)NO)ccn2c1CN(C)C [Compound 14, 3-(2-Butyl-3-dimethylaminomethyl-imidazo[1,2-a]pyridin-7-yl)-N-hydroxy-acrylamide] | – | 40 nM | 230 nM |
| CCNCc1c(C(C)(C)C)nc2cc(C=CC(=O)NO)ccn12 [Compound 15, 3-(2-tert-Butyl-3-ethylaminomethyl-imidazo[1,2-a]pyridin-7-yl)-N-hydroxy-acrylamide] | – | 60 nM | 470 nM |
| CCCCN(CC)Cc1c(C(C)(C)C)nc2cc(C=CC(=O)NO)ccn12 [Compound 16, 3-{2-tert-Butyl-3-[(butyl-ethyl-amino)-methyl]-imidazo[1,2-a]pyridin-7-yl}-N-hydroxy-acrylamide] | – | 60 nM | 680 nM |
| CCN(Cc1c(C(C)(C)C)nc2cc(C=CC(=O)NO)ccn12)CC(C)C [Compound 17, 3-{2-tert-Butyl-3-[(ethyl-isobutyl-amino)-methyl]-imidazo[1,2-a]pyridin-7-yl}-N-hydroxy-acrylamide] | – | 570 nM | 3900 nM |
| CCCCCN(CC)Cc1c(C(C)(C)C)nc2cc(C=CC(=O)NO)ccn12 [Compound 18, 3-{2-tert-Butyl-3-[(ethyl-pentyl-amino)-methyl]-imidazo[1,2-a]pyridin-7-yl}-N-hydroxy-acrylamide] | – | 130 nM | 750 nM |
| CCC(C)CN(CC)Cc1c(C(C)(C)C)nc2cc(C=CC(=O)NO)ccn12 (stereo not shown) [Compound 19, 3-(2-tert-Butyl-3-{[ethyl-(2-methyl-butyl)-amino]-methyl}-imidazo[1,2-a]pyridin-7-yl)-N-hydroxy-acrylamide] | – | – | 2200 nM |
| CCN(CCC(C)C)Cc1c(C(C)(C)C)nc2cc(C=CC(=O)NO)ccn12 [Compound 20, 3-(2-tert-Butyl-3-{[ethyl-(3-methyl-butyl)-amino]-methyl}-imidazo[1,2-a]pyridin-7-yl)-N-hydroxy-acrylamide] | – | 60 nM | 350 nM |
| CCCCCCN(CC)Cc1c(C(C)(C)C)nc2cc(C=CC(=O)NO)ccn12 [Compound 21, 3-{2-tert-Butyl-3-[(ethyl-hexyl-amino)-methyl]-imidazo[1,2-a]pyridin-7-yl}-N-hydroxy-acrylamide] | – | 240 nM | 2000 nM |
| CCCC(C)CN(CC)Cc1c(C(C)(C)C)nc2cc(C=CC(=O)NO)ccn12 (stereo not shown) [Compound 22, 3-(2-tert-Butyl-3-{[ethyl-(2-methyl-pentyl)-amino]-methyl}-imidazo[1,2-a]pyridin-7-yl)-N-hydroxy-acrylamide] | – | 470 nM | 2100 nM |
| CCN(CCC(C)(C)C)Cc1c(C(C)(C)C)nc2cc(C=CC(=O)NO)ccn12 [Compound 23, 3-(2-tert-Butyl-3-{[(3,3-dimethyl-butyl)-ethyl-amino]-methyl}-imidazo[1,2-a]pyridin-7-yl)-N-hydroxy-acrylamide] | – | 70 nM | 480 nM |
| CCC(CC)CN(CC)Cc1c(C(C)(C)C)nc2cc(C=CC(=O)NO)ccn12 [Compound 24, 3-(2-tert-Butyl-3-{[ethyl-(2-ethyl-butyl)-amino]-methyl}-imidazo[1,2-a]pyridin-7-yl)-N-hydroxy-acrylamide] | – | 190 nM | 970 nM |
| CCCCCCCN(CC)Cc1c(C(C)(C)C)nc2cc(/C=C/C(=O)NO)ccn12 [Compound 25] | – | 540 nM | 2700 nM |
| CCN(CCCSC)Cc1c(C(C)(C)C)nc2cc(C=CC(=O)NO)ccn12 [Compound 26, 3-(2-tert-Butyl-3-{[ethyl-(3-methylsulfanyl-propyl)-amino]-methyl}-imidazo[1,2-a]pyridin-7-yl)-N-hydroxy-acrylamide] | – | 90 nM | 600 nM |
| CCN(Cc1c(C(C)(C)C)nc2cc(C=CC(=O)NO)ccn12)CC1CC1 [Compound 27, 3-{2-tert-Butyl-3-[(cyclopropylmethyl-ethyl-amino)-methyl]-imidazo[1,2-a]pyridin-7-yl}-N-hydroxy-acrylamide] | – | 330 nM | 2100 nM |
| CCN(Cc1c(C(C)(C)C)nc2cc(C=CC(=O)NO)ccn12)CC1CCCCC1 [Compound 28, 3-{2-tert-Butyl-3-[(cyclohexylmethyl-ethyl-amino)-methyl]-imidazo[1,2-a]pyridin-7-yl}-N-hydroxy-acrylamide] | – | 190 nM | 1100 nM |
| CCN(CCC(C)C)Cc1c(CC(C)C)nc2cc(C=CC(=O)NO)ccn12 [Compound 60, 3-(3-{[Ethyl-(3-methyl-butyl)-amino]-methyl}-2-isobutyl-imidazo[1,2-a]pyridin-7-yl)-N-hydroxy-acrylamide] | – | – | 150 nM |
